Measured values from patent US20160287589A1, “SUBSTITUTED-IMIDAZOPYRIDAZINES” (BAYER PHARMA AKTIENGESELLSCHAFT, priority 2013, published 2016).

Columns and labels:
MKNK1 [1] = target: T1, MKNK1 (Homo sapiens, UniProt Q9BUB5, T385D); assay: MKNK1 kinase high ATP assay (TR-FRET-based); format: biochemical; details: 2 mM ATP, 15 min preincubation
T1 construct: GST (N); purchased Carna Biosciences 02-145; host or cells: insect cells (baculovirus expression system)
In short: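 GST-tagged full-length human MKNK1 (aa 1-424, T344D) from insect cells, preincubated with compound 15 min at 22 °C. Reaction 30 min at 22 °C with 2 mM ATP and 0.06 μM biotinylated peptide in HEPES pH 7.5, Mg2+, DTT. Phosphopeptide detected by TR-FRET (665/622 ratio) with anti-pS6 (pSer236) antibody; normalised to no-inhibitor and no-enzyme controls.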

MKNK1 [2] = target: T1, MKNK1; assay: MKNK1 kinase assay (MKNK1 TR-FRET assay); format: biochemical; details: 10 μM ATP, 15 min preincubation

T1 sequence (Q9BUB5 1-424 isoform Q9BUB5-2 T344D): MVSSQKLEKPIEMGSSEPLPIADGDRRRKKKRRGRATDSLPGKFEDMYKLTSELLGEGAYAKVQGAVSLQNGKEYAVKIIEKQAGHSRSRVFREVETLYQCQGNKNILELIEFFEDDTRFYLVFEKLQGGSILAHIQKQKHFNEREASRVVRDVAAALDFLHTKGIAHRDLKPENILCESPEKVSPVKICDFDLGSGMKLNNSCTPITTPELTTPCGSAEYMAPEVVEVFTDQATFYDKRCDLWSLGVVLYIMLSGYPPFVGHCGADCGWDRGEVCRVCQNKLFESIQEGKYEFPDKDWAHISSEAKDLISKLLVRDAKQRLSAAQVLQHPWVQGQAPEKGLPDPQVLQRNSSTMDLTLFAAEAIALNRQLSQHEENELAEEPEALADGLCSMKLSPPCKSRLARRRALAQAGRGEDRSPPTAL

IC50 (MKNK1 [1]; Table 2c) [nM] | IC50 (MKNK1 [2]; Table 1c) [nM] | SMILES | other results
– | – | O=C(CO)N1CCC[C@H]1CCOc1ccc2ncc(-c3cc4ccccc4o3)n2n1 [Example I-59, 1-[(2S)-2-(2-{[3-(1-Benzofuran-2-yl)imidazo[1,2-b]-pyridazin-6-yl]oxy}ethyl)pyrrolidin-1-yl]-2-hydroxyethanone] | IC50 (MKNK1 [1]; Table 2a): 5.3 nM; IC50 (MKNK1 [2]; Table 1a): 2.8 nM
– | – | CC1(C)CN(c2cccc3oc(-c4cnc5ccc(OCC(F)(F)F)nn45)cc23)CCN1 [II-54, 3-[4-(3,3-dimethylpiperazin-1-yl)-1-benzofuran-2-yl]-6-(2,2,2-trifluoroethoxy)im-idazo[1,2-b]pyridazine] | IC50 (MKNK1 [1]; Table 2b): 2.4 nM; IC50 (MKNK1 [2]; Table 1b): 2.3 nM
4.8 | 0.5 | CCN(CCOC)c1nccc2oc(-c3cnc4ccc(OC[C@H]5COCCN5)nn34)cc12 [III-38, N-Ethyl-N-(2-methoxyethyl)-2-{6-[(3R)-morpholin-3-ylmethoxy]imidazo[1,2-b]pyridazin-3-yl}furo[3,2-c]pyridin-4-amine] | –
11.8 | 12.8 | C[C@H](N)COc1ccc2ncc(-c3cc4c(N5CCOC(C)(C)C5)nccc4o3)n2n1 [III-128, (2S)-1-({3-[4-(2,2-dimethylmorpholin-4-yl)furo[3,2-c]pyridin-2-yl]imidazo[1,2-b]pyridazin-6-yl}oxy)propan-2-amine] | –
– | – | CC(=O)N[C@H]1C[C@H](Oc2ccc3ncc(-c4cc5ccccc5o4)n3n2)C1 [Example I-11, N-(trans-3-{[3-(1-Benzofuran-2-yl)imidazo[1,2-b]pyridazin-6-yl]oxy}cyclobutyl)-acetamide] | IC50 (MKNK1 [1]; Table 2a): 10 nM; IC50 (MKNK1 [2]; Table 1a): 2.9 nM
– | – | N[C@H]1C[C@H](Oc2ccc3ncc(-c4cc5c(N6CCOCC6)cccc5o4)n3n2)C1 [II-4, trans-3-({3-[4-(Morpholin-4-yl)-1-benzofuran-2-yl]imidazo[1,2-b]pyridazin-6-yl}oxy)cyclobutanamine] | IC50 (MKNK1 [1]; Table 2b): 28 nM; IC50 (MKNK1 [2]; Table 1b): 18 nM
10.5 | 3.9 | C[C@H](N)COc1ccc2ncc(-c3cc4c(N(C)CCCO)nccc4o3)n2n1 [III-20, 3-{[2-(6-{[(2S)-2-Aminopropyl]oxy}imidazo[1,2-b]pyridazin-3-yl)furo[3,2-c]pyridin-4-yl](methyl)amino}propan-1-ol] | –
1.2 | 0.2 | COC[C@H]1CCCN1c1nccc2oc(-c3cnc4ccc(OC[C@H]5CCC(=O)N5)nn34)cc12 [III-78, (5R)-5-{[(3-{4-[(2R)-2-(Methoxymethyl)pyrrolidin-1-yl]furo[3,2-c]pyridin-2-yl}imidazo[1,2-b]pyridazin-6-yl)oxy]methyl}pyrrolidin-2-one] | –
– | – | C[C@@H]1COCCN1c1cccc2oc(-c3cnc4ccc(OC[C@@H]5CCC(=O)N5)nn34)cc12 [II-51, (5S)-5-{[(3-{4-[(3R)-3-methylmorpholin-4-yl]-1-benzofuran-2-yl}imidazo[1,2-b]pyridazin-6-yl)oxy]methyl}pyrrolidin-2-one] | IC50 (MKNK1 [1]; Table 2b): 50.8 nM; IC50 (MKNK1 [2]; Table 1b): 2.8 nM
14.1 | 6.5 | C[C@H](N)COc1ccc2ncc(-c3cc4c(N5CCC(CO)CC5)nccc4o3)n2n1 [III-22, {1-[2-(6-{[(2S)-2-Aminopropyl]oxy}imidazo[1,2-b]pyridazin-3-yl)furo[3,2-c]pyridin-4-yl]piperidin-4-yl}methanol] | –
– | – | C[C@H](N)COc1ccc2ncc(-c3cc4c(N5CCO[C@H](C)C5)cccc4o3)n2n1 [II-70, (2S)-1-[(3-{4-[(2R)-2-methylmorpholin-4-yl]-1-benzofuran-2-yl}imidazo[1,2-b]pyridazin-6-yl)oxy]propan-2-amine] | IC50 (MKNK1 [1]; Table 2b): 49.2 nM; IC50 (MKNK1 [2]; Table 1b): 41.4 nM
42.2 | 3.8 | CCN(CCOC)c1nccc2oc(-c3cnc4ccc(O[C@H]5Cc6ccccc6[C@@H]5N)nn34)cc12 [III-111, 2-(6-{[(1S,2S)-1-Amino-2,3-dihydro-1H-inden-2-yl]oxy}imidazo[1,2-b]pyridazin-3-yl)-N-ethyl-N-(2-methoxyethyl)furo[3,2-c]pyridin-4-amine] | –
0.5 | 2.2 | C[C@H]1CN(c2nccc3oc(-c4cnc5ccc(OC[C@H]6CCC(=O)N6)nn45)cc23)CCO1 [III-123, (5R)-5-{[(3-{4-[(2S)-2-methylmorpholin-4-yl]furo[3,2-c]pyridin-2-yl}imidazo[1,2-b]pyridazin-6-yl)oxy]methyl}pyrrolidin-2-one] | –
– | – | C[C@@H](N)COc1ccc2ncc(-c3cc4c(N5CCO[C@@H](C)C5)cccc4o3)n2n1 [II-76, (2R)-1-[(3-{4-[(2S)-2-methylmorpholin-4-yl]-1-benzofuran-2-yl}imidazo[1,2-b]pyridazin-6-yl)oxy]propan-2-amine] | IC50 (MKNK1 [1]; Table 2b): 18.4 nM; IC50 (MKNK1 [2]; Table 1b): 6.9 nM
– | – | C[C@@H]1CNCCN1c1cccc2oc(-c3cnc4ccc(OC[C@H]5CCC(=O)N5)nn34)cc12 [II-65, (5R)-5-{[(3-{4-[(2R)-2-methylpiperazin-1-yl]-1-benzofuran-2-yl}imidazo[1,2-b]pyridazin-6-yl)oxy]methyl}pyrrolidin-2-one] | IC50 (MKNK1 [1]; Table 2b): 1.3 nM; IC50 (MKNK1 [2]; Table 1b): 0.9 nM
– | – | COCC(=O)NC[C@H](Oc1ccc2ncc(-c3cc4ccccc4o3)n2n1)c1cccnc1 [Example I-30, N-[(2R)-2-{[3-(1-Benzofuran-2-yl)imidazo[1,2-b]pyridazin-6-yl]oxy}-2-(pyridin-3-yl)ethyl]-2-methoxyacetamide] | IC50 (MKNK1 [1]; Table 2a): 34.8 nM; IC50 (MKNK1 [2]; Table 1a): 10.3 nM
8.7 | 27 | COc1ccc2ncc(-c3cc4c(N5CCOC(C)(C)C5)nccc4o3)n2n1 [III-146, 3-[4-(2,2-dimethylmorpholin-4-yl)furo[3,2-c]pyridin-2-yl]-6-methoxy-imidazo[1,2-b]pyridazine] | –
10 | 3.7 | C[C@H]1CN(c2nccc3oc(-c4cnc5ccc(OCCCS(C)(=O)=O)nn45)cc23)CCN1 [III-143, 3-{4-[(3S)-3-methylpiperazin-1-yl]furo[3,2-c]pyridin-2-yl}-6-[3-(methylsulfonyl)propoxy] imidazo[1,2-b]pyridazine] | –
– | – | CCC(=O)N1CCC[C@H]1CCOc1ccc2ncc(-c3cc4ccccc4o3)n2n1 [Example I-44, 1-[(2S)-2-(2-{[3-(1-Benzofuran-2-yl)imidazo[1,2-b]-pyridazin-6-yl]oxy}ethyl)pyrrolidin-1-yl]propan-1-one] | IC50 (MKNK1 [1]; Table 2a): 1.7 nM; IC50 (MKNK1 [2]; Table 1a): 1.1 nM
37.3 | 11.6 | c1cc2oc(-c3cnc4ccc(OC[C@@H]5COCCN5)nn34)cc2c(N2CCOCC2)n1 [III-36, 3-[4-(Morpholin-4-yl)furo[3,2-c]pyridin-2-yl]-6-[(3S)-morpholin-3-ylmethoxy]imidazo[1,2-b]pyridazine] | –
– | – | Cc1nocc1C(=O)N1CCC[C@H]1CCOc1ccc2ncc(-c3cc4ccccc4o3)n2n1 [Example I-52, [(2S)-2-(2-{[3-(1-Benzofuran-2-yl)imidazo[1,2-b]-pyridazin-6-yl]oxy}ethyl)pyrrolidin-1-yl](3-methyl-1,2-oxazol-4-yl)methanone] | IC50 (MKNK1 [1]; Table 2a): 3.4 nM; IC50 (MKNK1 [2]; Table 1a): 1.7 nM
17 | 8.8 | C[C@@H]1CN(c2nccc3oc(-c4cnc5ccc(OCCCS(C)(=O)=O)nn45)cc23)CCO1 [III-119, 3-{4-[(2R)-2-methylmorpholin-4-yl]furo[3,2-c]pyridin-2-yl}-6-[3-(methylsulfonyl)propoxy] imidazo[1,2-b]pyridazine] | –
7.8 | 3.2 | N[C@H]1C[C@H](Oc2ccc3ncc(-c4cc5c(N6CCOCC6)nccc5o4)n3n2)C1 [III-95, trans-3-({3-[4-(Morpholin-4-yl)furo[3,2-c]pyridin-2-yl]imidazo[1,2-b]pyridazin-6-yl}oxy)cyclobutanamine] | –
